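All cell lines were grown in 96-well plates and treated with compound for 48 hours. TGI is the concentration that stops growth completely.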
How the values were obtained:
Test in all cases: inhibition of tumour cell growth, NCI panel, 48 h
[1] = system: HOP-62 NSCLC
[2] = system: CAKI-1 renal
[3] = system: DU-145 prostate
[4] = system: SK-MEL-28 melanoma
[5] = system: MCF7 breast
[6] = system: OVCAR-3 ovarian
[7] = system: UO-31 renal
[8] = system: COLO 205 colon
[9] = system: SK-MEL-5 melanoma
[10] = system: ACHN renal
[11] = system: SW-620 colon
[12] = system: MDA-N
[13] = system: HOP-92 NSCLC
[14] = system: MALME-3M melanoma
[15] = system: UACC-62 melanoma
[16] = system: HCT-15 colon
[17] = system: TK-10 renal
[18] = system: MDA-MB-435
[19] = system: PC-3 prostate
[20] = system: SK-OV-3 ovarian
[21] = system: LOX IMVI melanoma
[22] = system: SNB-75 CNS
[23] = system: BT-549 breast
[24] = system: OVCAR-5 ovarian
[25] = system: M14 melanoma
[26] = system: HCT-116 colon
[27] = system: SF-295 CNS
[28] = system: NCI-H460 lung
[29] = system: HS 578T breast
[30] = system: IGROV1 ovarian
[31] = system: A498 renal
[32] = system: MDA-MB-231 breast
[33] = system: 786-0 renal
[34] = system: SNB-19 CNS
[35] = system: KM12 colon
[36] = system: NCI-H23 lung
[37] = system: HL-60(TB) leukemia
[38] = system: SN12C renal
[39] = system: SF-268 CNS
[40] = system: CCRF-CEM leukemia
[41] = system: OVCAR-4 ovarian
[42] = system: SK-MEL-2 melanoma
[43] = system: T-47D breast
[44] = system: U251 CNS
[45] = system: SF-539 CNS
[46] = system: NCI-H226 lung
[47] = system: UACC-257 melanoma
[48] = system: NCI-H522 lung
[49] = system: MOLT-4 leukemia
[50] = system: EKVX NSCLC
[51] = system: HT29 colon
[52] = system: A549 NSCLC
[53] = system: OVCAR-8 ovarian
[54] = system: NCI/ADR-RES ovarian
[55] = system: RXF 393 renal
[56] = system: RPMI-8226 leukemia
[57] = system: K-562 leukemia
[58] = system: SR leukemia
[59] = system: HCC-2998 colon

Cc1cc2ncc3c(=O)n(NS(=O)(=O)c4ccc(N)cc4)ccc3n2n1
TGI [1]: > 100 µM | TGI [2]: > 100 µM | TGI [3]: > 100 µM | TGI [4]: > 100 µM | TGI [5]: > 100 µM | TGI [6]: > 100 µM | TGI [7]: > 100 µM | TGI [8]: > 100 µM | TGI [9]: > 100 µM | TGI [10]: > 100 µM | TGI [11]: > 100 µM | TGI [12]: > 100 µM | TGI [13]: > 100 µM | TGI [14]: > 100 µM | TGI [15]: > 100 µM | TGI [16]: > 100 µM | TGI [17]: > 100 µM | TGI [18]: > 100 µM | TGI [19]: > 100 µM | TGI [20]: > 100 µM | TGI [21]: > 100 µM | TGI [22]: > 100 µM | TGI [23]: > 100 µM | TGI [24]: > 100 µM | TGI [25]: > 100 µM | TGI [26]: > 100 µM | TGI [27]: > 100 µM | TGI [28]: > 100 µM | TGI [29]: > 100 µM | TGI [30]: > 100 µM | TGI [31]: > 100 µM | TGI [32]: > 100 µM | TGI [33]: > 100 µM | TGI [34]: > 100 µM | TGI [35]: > 100 µM | TGI [36]: > 100 µM | TGI [37]: > 100 µM | TGI [38]: > 100 µM | TGI [39]: > 100 µM | TGI [40]: > 100 µM | TGI [41]: > 100 µM | TGI [42]: > 100 µM | TGI [43]: > 100 µM | TGI [44]: > 100 µM | TGI [45]: > 100 µM | TGI [46]: > 100 µM | TGI [47]: > 100 µM | TGI [48]: > 100 µM | TGI [49]: > 100 µM | TGI [50]: > 100 µM | TGI [51]: > 100 µM | TGI [52]: > 100 µM | TGI [53]: > 100 µM

COC(=O)Cc1c([C@H]2[C@H](CC(=O)OC)c3ccccc3N2C(C)=O)[nH]c2ccccc12
TGI [1]: > 100 µM | TGI [2]: > 100 µM | TGI [3]: > 100 µM | TGI [4]: > 100 µM | TGI [6]: > 100 µM | TGI [7]: > 100 µM | TGI [8]: > 100 µM | TGI [9]: > 100 µM | TGI [10]: > 100 µM | TGI [11]: > 100 µM | TGI [12]: > 100 µM | TGI [13]: > 100 µM | TGI [14]: > 100 µM | TGI [15]: > 100 µM | TGI [16]: > 100 µM | TGI [17]: > 100 µM | TGI [18]: > 100 µM | TGI [19]: > 100 µM | TGI [20]: > 100 µM | TGI [21]: > 100 µM | TGI [22]: > 100 µM | TGI [23]: > 100 µM | TGI [24]: > 100 µM | TGI [25]: > 100 µM | TGI [26]: > 100 µM | TGI [27]: > 100 µM | TGI [28]: > 100 µM | TGI [29]: > 100 µM | TGI [30]: > 100 µM | TGI [31]: > 100 µM | TGI [32]: > 100 µM | TGI [33]: > 100 µM | TGI [54]: > 100 µM | TGI [34]: > 100 µM | TGI [35]: > 100 µM | TGI [36]: > 100 µM | TGI [37]: > 100 µM | TGI [38]: > 100 µM | TGI [55]: > 100 µM | TGI [39]: > 100 µM | TGI [40]: > 100 µM | TGI [56]: > 100 µM | TGI [42]: > 100 µM | TGI [43]: > 100 µM | TGI [44]: > 100 µM | TGI [45]: > 100 µM | TGI [46]: > 100 µM | TGI [47]: > 100 µM | TGI [48]: > 100 µM | TGI [49]: > 100 µM | TGI [50]: > 100 µM | TGI [57]: > 100 µM | TGI [51]: > 100 µM | TGI [52]: > 100 µM | TGI [53]: > 100 µM

CC(C)(C)[Si](C)(C)OCC1OC(n2cnc3c(N)ncnc32)C(O[Si](C)(C)C(C)(C)C)C1O[Si](C)(C)C(C)(C)C (stereo not drawn)
TGI [1]: 46 µM | TGI [3]: > 100 µM | TGI [6]: 13.8 µM | TGI [8]: > 100 µM | TGI [9]: 14.4 µM | TGI [10]: 27.2 µM | TGI [11]: > 100 µM | TGI [12]: > 100 µM | TGI [13]: > 100 µM | TGI [14]: > 100 µM | TGI [15]: 51.6 µM | TGI [16]: > 100 µM | TGI [19]: 30 µM | TGI [21]: 39.2 µM | TGI [22]: 27.6 µM | TGI [25]: 67.4 µM | TGI [26]: 22.4 µM | TGI [27]: 62.3 µM | TGI [28]: 27.3 µM | TGI [29]: 58.5 µM | TGI [30]: > 100 µM | TGI [58]: 86.7 µM | TGI [32]: 54.1 µM | TGI [33]: 18.6 µM | TGI [54]: > 100 µM | TGI [38]: 34.9 µM | TGI [39]: 56.5 µM | TGI [42]: 49.4 µM | TGI [43]: 46.4 µM | TGI [47]: > 100 µM | TGI [48]: 21.3 µM | TGI [49]: 12.8 µM | TGI [50]: 64.7 µM | TGI [51]: > 100 µM | TGI [52]: 48.5 µM | TGI [53]: 42 µM

NC1CNC(=O)c2c(Cl)sc(Cl)c21 (stereo not drawn)
TGI [1]: > 100 µM | TGI [2]: > 100 µM | TGI [3]: > 100 µM | TGI [4]: > 100 µM | TGI [5]: > 100 µM | TGI [6]: > 100 µM | TGI [7]: > 100 µM | TGI [59]: > 100 µM | TGI [8]: > 100 µM | TGI [10]: > 100 µM | TGI [11]: > 100 µM | TGI [12]: > 100 µM | TGI [13]: > 100 µM | TGI [14]: > 100 µM | TGI [15]: > 100 µM | TGI [16]: > 100 µM | TGI [17]: > 100 µM | TGI [18]: > 100 µM | TGI [19]: > 100 µM | TGI [20]: > 100 µM | TGI [21]: > 100 µM | TGI [22]: > 100 µM | TGI [24]: > 100 µM | TGI [25]: > 100 µM | TGI [26]: > 100 µM | TGI [27]: > 100 µM | TGI [28]: > 100 µM | TGI [29]: > 100 µM | TGI [30]: > 100 µM | TGI [58]: > 100 µM | TGI [31]: > 100 µM | TGI [32]: > 100 µM | TGI [33]: > 100 µM | TGI [54]: > 100 µM | TGI [34]: > 100 µM | TGI [35]: > 100 µM | TGI [36]: > 100 µM | TGI [38]: > 100 µM | TGI [55]: > 100 µM | TGI [39]: > 100 µM | TGI [41]: > 100 µM | TGI [56]: > 100 µM | TGI [42]: > 100 µM | TGI [43]: > 100 µM | TGI [44]: > 100 µM | TGI [45]: > 100 µM | TGI [46]: > 100 µM | TGI [47]: > 100 µM | TGI [49]: > 100 µM | TGI [50]: > 100 µM | TGI [57]: > 100 µM | TGI [51]: > 100 µM | TGI [52]: > 100 µM | TGI [53]: > 100 µM

Source: PubChem BioAssay (NCI)
